Legend:
Assay type in all cases: in vivo
wheat crop plants = test: Crop phytotoxicity comparison, post-emergence
Method: (§1) Seeds of a variety of test species are sown in standard soil in pots (Lolium perenne (LOLPE), Setaria faberi (SETFA), Alopecurus myosuroides (ALOMY), Echinochloa crus-galli (ECHCG), Avena fatua (AVEFA)). After cultivation for one day (pre-emergence) or after 8 days cultivation (post-emergence) under controlled conditions in a glasshouse (at 24/16° C., day/night; 14 hours light; 65% humidity), the plants are sprayed with an aqueous spray solution derived from the formulation of the technical active ingredient in acetone/water (50:50) solution containing 0.5% Tween 20 (polyoxyethelyene sorbitan monolaurate, CAS RN 9005-64-5). Compounds are applied at 250 g/h. The test plants are then grown in a glasshouse under controlled conditions in a glasshouse (at 24/16° C., day/night; 14 hours light; 65% humidity) and watered twice daily. After 13 days for pre and post-emergence, the test is evaluated for the percentage damage caused to the plant. The biological activities are shown in the following table on a five point scale (5=80-100%; 4=60-79%; 3=40-59%; 2=20-39%; 1=0-19%). NT=not tested.
(§2) Using procedures outlines above, wheat and barley crop plants are treated, post-emergence with compounds A1, A3 or A8 of the present invention or comparator compound C1 (Compound A-38 from WO2014/096289) at the application rates indicated. The compounds were also applied in conjunction with the safener compound cloquintocet-mexyl (CQC) at 50 g/ha.

barley crop plants = test: Crop phytotoxicity comparison, post-emergence
Method: as §1, §2

Avena fatua (AVEFA) [1] = test: Post-emergence herbicidal glasshouse test; conditions: 250 g/Ha, evaluated after 13 days
Method: as §1

[2] = test system: Alopecurus myosuroides (ALOMY); test: Post-emergence herbicidal glasshouse test; conditions: 250 g/Ha, evaluated after 13 days
Method: as §1

Lolium perenne (LOLPE) [3] = test: Post-emergence herbicidal glasshouse test; conditions: 250 g/Ha, evaluated after 13 days
Method: as §1

[4] = test system: Echinochloa crus-galli (ECHCG); test: Post-emergence herbicidal glasshouse test; conditions: 250 g/Ha, evaluated after 13 days
Method: as §1

Setaria faberi (SETFA) [5] = test: Post-emergence herbicidal glasshouse test; conditions: 250 g/Ha, evaluated after 13 days
Method: as §1

Avena fatua (AVEFA) [6] = test: Pre-emergence herbicidal glasshouse test; conditions: 250 g/Ha, evaluated after 13 days
Method: as §1

[7] = test system: Alopecurus myosuroides (ALOMY); test: Pre-emergence herbicidal glasshouse test; conditions: 250 g/Ha, evaluated after 13 days
Method: as §1

Lolium perenne (LOLPE) [8] = test: Pre-emergence herbicidal glasshouse test; conditions: 250 g/Ha, evaluated after 13 days
Method: as §1

[9] = test system: Echinochloa crus-galli (ECHCG); test: Pre-emergence herbicidal glasshouse test; conditions: 250 g/Ha, evaluated after 13 days
Method: as §1

Setaria faberi (SETFA) [10] = test: Pre-emergence herbicidal glasshouse test; conditions: 250 g/Ha, evaluated after 13 days
Method: as §1

[11] = post-emergence, 60 g/ha + safener cloquintocet-mexyl (CQC) at 50 g/ha
[12] = post-emergence, summary of Table B3

Row | SMILES | % phytotoxicity observed, Wheat (wheat crop plants; post-emergence, 30 g/ha) | % phytotoxicity observed, Wheat (wheat crop plants; post-emergence, 60 g/ha) | % phytotoxicity observed, Wheat (wheat crop plants; [11]) | damage to wheat crop compared to prior art compound C1 (wheat crop plants; [12]) | % phytotoxicity observed, Barley (barley crop plants; post-emergence, 30 g/ha) | % phytotoxicity observed, Barley (barley crop plants; post-emergence, 60 g/ha) | damage to barley crop compared to prior art compound C1 (barley crop plants; [12]) | percentage damage caused to the plant, five point scale, AVEFA (Avena fatua (AVEFA) [1]) | percentage damage caused to the plant, five point scale, ALOMY [2] | percentage damage caused to the plant, five point scale, LOLPE (Lolium perenne (LOLPE) [3]) | percentage damage caused to the plant, five point scale, ECHCG [4] | percentage damage caused to the plant, five point scale, SETFA (Setaria faberi (SETFA) [5]) | percentage damage caused to the plant, five point scale, AVEFA (Avena fatua (AVEFA) [6]) | percentage damage caused to the plant, five point scale, ALOMY [7] | percentage damage caused to the plant, five point scale, LOLPE (Lolium perenne (LOLPE) [8]) | percentage damage caused to the plant, five point scale, ECHCG [9] | percentage damage caused to the plant, five point scale, SETFA (Setaria faberi (SETFA) [10]) | damage to wheat crop compared to prior art compound C1 (wheat crop plants; in vivo) | damage to barley crop compared to prior art compound C1 (barley crop plants; in vivo)
1 | CC#Cc1cc(C)c(C2C(=O)CC3(CCN(C(=O)C(C)=NOC)CC3)CC2=O)c(C)c1 [Compound A1, 9-(2,6-dimethyl-4-prop-1-ynyl-phenyl)-3-(2-methoxyiminopropanoyl)-3-azaspiro[5.5]undecane-8,10-dione] | 10% | 20% | 0% | significantly less damaging | 20% | 40% | significantly less damaging | 5 (5=80-100%) | 5 (5=80-100%) | 5 (5=80-100%) | 5 (5=80-100%) | 5 (5=80-100%) | 5 (5=80-100%) | 5 (5=80-100%) | 5 (5=80-100%) | 5 (5=80-100%) | 5 (5=80-100%) | – | –
2 | CC#Cc1cc(C)c(C2C(=O)CC3(CCN(C(=O)C(C)=NOCC)CC3)CC2=O)c(C)c1 [Compound A2] | – | – | – | – | – | – | – | 5 (5=80-100%) | 5 (5=80-100%) | 5 (5=80-100%) | 5 (5=80-100%) | 5 (5=80-100%) | 5 (5=80-100%) | 5 (5=80-100%) | 5 (5=80-100%) | 5 (5=80-100%) | 5 (5=80-100%) | – | –
3 | CC#Cc1cc(C)c(C2C(=O)CC3(CCN(C(=O)/C=N/OC)CC3)CC2=O)c(C)c1 [Compound A3, 9-(2,6-dimethyl-4-prop-1-ynyl-phenyl)-3-[(2E)-2-methoxyiminoacetyl]-3-azaspiro[5.5]undecane-8,10-dione] | – | – | – | – | – | – | – | 5 (5=80-100%) | 5 (5=80-100%) | 5 (5=80-100%) | 5 (5=80-100%) | 5 (5=80-100%) | 5 (5=80-100%) | 4 (4=60-79%) | 5 (5=80-100%) | 5 (5=80-100%) | 5 (5=80-100%) | significantly less damaging | significantly less damaging
4 | CC#Cc1cc(C)c(C2C(=O)CC3(CCN(C(=O)/C(C)=N/O)CC3)CC2=O)c(C)c1 [Compound A4] | – | – | – | – | – | – | – | 5 (5=80-100%) | 5 (5=80-100%) | 5 (5=80-100%) | 5 (5=80-100%) | 5 (5=80-100%) | 5 (5=80-100%) | 5 (5=80-100%) | 5 (5=80-100%) | 5 (5=80-100%) | 5 (5=80-100%) | – | –
5 | CC#Cc1cc(C)c(C2C(=O)CC3(CCN(C(=O)/C(C)=N\O)CC3)CC2=O)c(C)c1 [Compound A5] | – | – | – | – | – | – | – | 5 (5=80-100%) | 5 (5=80-100%) | 5 (5=80-100%) | 5 (5=80-100%) | 5 (5=80-100%) | 5 (5=80-100%) | 4 (4=60-79%) | 5 (5=80-100%) | 5 (5=80-100%) | 5 (5=80-100%) | – | –
6 | CC#Cc1cc(C)c(C2C(=O)CC3(CCN(C(=O)/C(C)=N/Oc4ccccn4)CC3)CC2=O)c(C)c1 [Compound A6, 9-(2,6-dimethyl-4-prop-1-ynyl-phenyl)-3-[(2E)-2-(2-pyridyloxyimino)propanoyl]-3-azaspiro[5.5]undecane-8,10-dione] | – | – | – | – | – | – | – | 5 (5=80-100%) | 5 (5=80-100%) | 5 (5=80-100%) | 5 (5=80-100%) | 5 (5=80-100%) | 5 (5=80-100%) | 5 (5=80-100%) | 5 (5=80-100%) | 5 (5=80-100%) | 5 (5=80-100%) | – | –
7 | CC#Cc1cc(C)c(C2C(=O)CC3(CCN(C(=O)/C(=N\OC)C(C)(C)C)CC3)CC2=O)c(C)c1 [Compound A7] | – | – | – | – | – | – | – | 3 (3=40-59%) | 4 (4=60-79%) | 5 (5=80-100%) | 5 (5=80-100%) | 5 (5=80-100%) | 2 (2=20-39%) | 4 (4=60-79%) | 5 (5=80-100%) | 5 (5=80-100%) | 5 (5=80-100%) | – | –
8 | CC#Cc1cc(C)c(C2C(=O)CC3(CCN(C(=O)/C(C)=N/OC4CCOCC4)CC3)CC2=O)c(C)c1 [Compound A9] | – | – | – | – | – | – | – | 5 (5=80-100%) | 5 (5=80-100%) | 4 (4=60-79%) | 5 (5=80-100%) | 5 (5=80-100%) | 2 (2=20-39%) | 5 (5=80-100%) | 3 (3=40-59%) | 3 (3=40-59%) | 4 (4=60-79%) | – | –
9 | CC#Cc1cc(C)c(C2C(=O)CC3(CCN(C(=O)C(C)=NOCC#N)CC3)CC2=O)c(C)c1 [Compound A10] | – | – | – | – | – | – | – | 5 (5=80-100%) | 5 (5=80-100%) | 5 (5=80-100%) | 5 (5=80-100%) | 5 (5=80-100%) | 1 (1=0-19%) | 4 (4=60-79%) | 1 (1=0-19%) | 4 (4=60-79%) | 4 (4=60-79%) | – | –
10 | CC#Cc1cc(C)c(C2C(=O)CC3(CCN(C(=O)C(C)=NOCCOC)CC3)CC2=O)c(C)c1 [Compound A11] | – | – | – | – | – | – | – | 5 (5=80-100%) | 5 (5=80-100%) | 5 (5=80-100%) | 5 (5=80-100%) | 5 (5=80-100%) | 3 (3=40-59%) | 5 (5=80-100%) | 5 (5=80-100%) | 5 (5=80-100%) | 5 (5=80-100%) | – | –
11 | CC#Cc1cc(C)c(C2C(=O)CC3(CCOCC3)CC2=O)c(C)c1 [Compound C1, reference compound] | 40% | 70% | 60% | – | 80% | 90% | – | – | – | – | – | – | – | – | – | – | – | – | –

— patent US12161115B2, “Herbicidal compounds” (SYNGENTA CROP PROTECTION AG, priority 2019, dated 2024)
